Test: Safety and tolerability
Format: in vivo
[1] = Panel 2: MK-5108 CT with docetaxel 60 mg/m^2 (n = 17)
[2] = Panel 2: MK-5108 CT with docetaxel (N = 17)

## O=C(O)[C@]1(Cc2cccc(Nc3nccs3)n2)CC[C@@H](Oc2cccc(Cl)c2F)CC1 [MK-5108]
Panel 1: MK-5108 MT (N = 14)
  Patients with drug-related AEs, highest grade: Grade 2: 5 (35.7) n (%)
  Patients with drug-related AEs, highest grade: Grade 3: 0 (0.0) n (%)
  Patients with drug-related AEs, highest grade: Grade 4: 0 (0.0) n (%)
  Patients with no drug-related AEs: 6 (42.9) n (%)
  Patients with one or more drug-related AEs: 8 (57.1) n (%)
Panel 1: MK-5108 MT (n = 14)
  Death: 1 (7.1) n (%)
  Discontinued treatment due to a drug-related AE: 0 n (%)
  Discontinued treatment due to a drug-related SAE: 0 n (%)
  Discontinued treatment due to an SAE: 1 (7.1) n (%)
  Discontinued treatment due to any AE: 2 (14.3) n (%)
  Patients with any AE: 14 (100.0) n (%)
  Patients with drug-related AE: 8 (57.1) n (%)
  Patients with no AE: 0 n
  Patients with serious AE: 4 (28.6) n (%)
  Patients with serious drug-related AE: 0 n (%)
Panel 2 (CT), 100 mg Q12hr (200 mg/day), febrile neutropenia (Grade 3)
  patients experiencing a DLT: one patient
Panel 2 (CT), 150 mg Q12hr, 6 patients
  patients experiencing any DLTs: None
Panel 2 (CT), 225 mg Q12hr (450 mg/day), febrile neutropenia (Grade 4) and infection (Grade 3)
  DLTs: 2
Panel 2 (CT), 12/17
  AEs (all grades and doses) by SOC: Gastrointestinal disorders: 70.6%
  AEs (all grades and doses) by SOC: Metabolism and nutrition disorders: 70.6%
  AEs (all grades and doses) by SOC: Skin and subcutaneous tissue disorders: 70.6%
  patients with a Grade 3 or 4 drug-related AE: 70.6%
Panel 2 (CT), 15/17
  AEs (all grades and doses) by SOC: Blood and lymphatic system disorders: 88.2%
  AEs (all grades and doses) by SOC: General disorders and administration site conditions: 88.2%
[1]
  Death: 0 n (%)
  Discontinued treatment due to a drug-related AE: 1 (5.9) n (%)
  Discontinued treatment due to a drug-related SAE: 1 (5.9) n (%)
  Discontinued treatment due to an SAE: 2 (11.8) n (%)
  Discontinued treatment due to any AE: 2 (11.8) n (%)
  Patients with any AE: 17 (100.0) n (%)
  Patients with drug-related AE: 15 (88.2) n (%)
  Patients with no AE: 0 n
  Patients with serious AE: 9 (52.9) n (%)
  Patients with serious drug-related AE: 4 (23.5) n (%)
[2]
  Drug-related AEs by SOC: Blood and lymphatic system disorders: 14 (82.4) n (%)
  Drug-related AEs by SOC: Gastrointestinal disorders: 11 (64.7) n (%)
  Drug-related AEs by SOC: General disorders and administration site conditions: 11 (64.7) n (%)
  Drug-related AEs by SOC: Infections and infestations: 4 (23.5) n (%)
  Drug-related AEs by SOC: Investigations: 5 (29.4) n (%)
  Drug-related AEs by SOC: Metabolism and nutrition disorders: 9 (52.9) n (%)
  Drug-related AEs by SOC: Musculoskeletal and connective tissue disorders: 5 (29.4) n (%)
  Drug-related AEs by SOC: Nervous system disorders: 3 (17.6) n (%)
  Drug-related AEs by SOC: Respiratory, thoracic and mediastinal disorders: 5 (29.4) n (%)
  Drug-related AEs by SOC: Skin and subcutaneous tissue disorders: 8 (47.1) n (%)
  Drug-related AEs by SOC: Vascular disorders: 2 (11.8) n (%)
  Patients with drug-related AEs, highest grade: Grade 1: 0 (0.0) n (%)
  Patients with drug-related AEs, highest grade: Grade 2: 3 (17.6) n (%)
  Patients with drug-related AEs, highest grade: Grade 3: 6 (35.3) n (%)
  Patients with drug-related AEs, highest grade: Grade 4: 6 (35.3) n (%)
  Patients with no drug-related AEs: 2 (11.8) n (%)
  Patients with one or more drug-related AEs: 15 (88.2) n (%)
Total (N = 35)
  Drug-related AEs by SOC: Blood and lymphatic system disorders: 20 (57.1) n (%)
  Drug-related AEs by SOC: Gastrointestinal disorders: 19 (54.3) n (%)
  Drug-related AEs by SOC: General disorders and administration site conditions: 20 (57.1) n (%)
  Drug-related AEs by SOC: Infections and infestations: 4 (11.4) n (%)
  Drug-related AEs by SOC: Investigations: 8 (22.9) n (%)
  Drug-related AEs by SOC: Metabolism and nutrition disorders: 13 (37.1) n (%)
  Drug-related AEs by SOC: Musculoskeletal and connective tissue disorders: 7 (20.0) n (%)
  Drug-related AEs by SOC: Nervous system disorders: 7 (20.0) n (%)
  Drug-related AEs by SOC: Respiratory, thoracic and mediastinal disorders: 7 (20.0) n (%)
  Drug-related AEs by SOC: Skin and subcutaneous tissue disorders: 10 (28.6) n (%)
  Drug-related AEs by SOC: Vascular disorders: 2 (5.7) n (%)
  Patients with drug-related AEs, highest grade: Grade 1: 4 (11.4) n (%)
  Patients with drug-related AEs, highest grade: Grade 2: 8 (22.9) n (%)
  Patients with drug-related AEs, highest grade: Grade 3: 7 (20.0) n (%)
  Patients with drug-related AEs, highest grade: Grade 4: 7 (20.0) n (%)
  Patients with no drug-related AEs: 9 (25.7) n (%)
  Patients with one or more drug-related AEs: 26 (74.3) n (%)

Source: article PMC4806784 (Investigational new drugs, 2015)
